Measurements: US4820694A, “Modifications of 3-O-demethylmycinose in macrocin and lactenocin” (priority 1986, dated 1989)
Values after ≈ are worked out from the molar mass of the structure shown. Read-outs that look alike come from different tables or passages of the source.

What was measured:
[1] = test system: Staphylococcus aureus V41; assay: standard agar-dilution MIC assay; format: cell-based; conditions: Staphylococcus aureus, V41
Method: (§1) The MIC's in Table III were determined by standard agar-dilution assays. The MIC's in Table IV were obtained using conventional brothdilution microtiter tests.

Escherichia coli EC14 = assay: standard agar-dilution MIC assay; format: cell-based
Method: as §1

[2] = test system: Pseudomonas aeruginosa X239; assay: standard agar-dilution MIC assay; format: cell-based; conditions: Pseudomonas aeruginosa, X239
Method: as §1

[3] = test system: Klebsiella pneumoniae X68; assay: standard agar-dilution MIC assay; format: cell-based; conditions: Klebsiella pneumoniae, X68
Method: as §1

[4] = test system: Staphylococcus aureus X1.1; assay: standard agar-dilution MIC assay; format: cell-based; conditions: Staphylococcus aureus, X1.1
Method: as §1

[5] = test system: Streptococcus pyogenes C203; assay: standard agar-dilution MIC assay; format: cell-based; conditions: Streptococcus pyogenes, C203
Method: as §1

[6] = test system: Streptococcus Group D X66; assay: standard agar-dilution MIC assay; format: cell-based; conditions: read-out: MIC
Method: as §1

[7] = test system: Staphylococcus aureus X400; assay: standard agar-dilution MIC assay; format: cell-based; conditions: Staphylococcus aureus, X400
Method: as §1

[8] = test system: Streptococcus Group D 9960; assay: standard agar-dilution MIC assay; format: cell-based; conditions: GROUPD9960, read-out: MIC
Method: as §1

[9] = test system: Staphylococcus epidermidis EPI1; assay: standard agar-dilution MIC assay; format: cell-based; conditions: Staphylococcus epidermidis, EPI1
Method: as §1

[10] = test system: Staphylococcus epidermidis EP12; assay: standard agar-dilution MIC assay; format: cell-based
Method: as §1

Pasteurella multocida = Pasteurella multocida infection in one-day-old chicks; format: in vivo; conditions: subcutaneously, 30 mg/kg × 2, 1 and 4 hours post-challenge
Method: Some of the formula 1 compounds have also shown in vivo antibacterial activity against infections induced by Gram-negative bacteria. Table VI summarizes the results of tests in which illustrative compounds were evaluated against a Pasteurella infection in one-day-old chicks. The compounds were administered by subcutaneous injection at a dosage of 30 mg/kg, 1 and 4 hours post-challenge of the chicks with Pasteurella multocida (0.1 ml of a 10^-4 dilution of a twenty-hour tryptose broth culture of an avian P. multocida given subcutaneously). In these tests, unless indicated otherwise, all non-medicated infected chicks died within 24 hours of Pasteurella challenge.
^a Administered subcutaneously; 30 mg/kg × 2

[11] = test system: Streptococcus pyogenes C203; assay: protection of mice experimentally infected with S. pyogenes C203; format: in vivo; conditions: C203, sc, Subcutaneous, mice, mg/kg × 2, doses given 1 and 4 hours postinfection, read-out: ED50
Summary of the method: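 Activity is given as ED50, the mg/kg dose (×2) protecting half of the mice infected with S. pyogenes C203. Compound was dosed 1 and 4 h after infection.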

[12] = test system: Staphylococcus aureus S13E; assay: microbe, parasite or virus in culture; format: cell-based; conditions: Staphylococcus aureus, S13E
Method: as §1

[13] = test system: Streptococcus pneumoniae Park I; assay: microbe, parasite or virus in culture; format: cell-based; conditions: Streptococcus pneumoniae
Method: as §1

Streptococcus sp. 19F = assay: broth-dilution microtiter MIC test; format: cell-based; conditions: Streptococcus, SP.19F
Method: as §1

[14] = test system: Mycoplasma gallisepticum 29C; assay: broth-dilution microtiter MIC test; format: cell-based; conditions: Mycoplasmoides gallisepticum, 29C
Method: as §1

[15] = test system: Staphylococcus aureus 19C; assay: broth-dilution microtiter MIC test; format: cell-based; conditions: Staphylococcus aureus, 19C
Method: as §1

[16] = test system: Pasteurella multocida 40G; assay: broth-dilution microtiter MIC test; format: cell-based; conditions: Pasteurella multocida, 40G
Method: as §1

[17] = test system: Pasteurella hemolytica 41D; assay: broth-dilution microtiter MIC test; format: cell-based; conditions: Pasteurella, 41D
Method: as §1

[18] = test system: Bordetella bronchiseptica; assay: broth-dilution microtiter MIC test; format: cell-based; conditions: Bordetella bronchiseptica
Method: as §1

[19] = test system: Pasteurella multocida 17E; assay: broth-dilution microtiter MIC test; format: cell-based; conditions: Pasteurella multocida, 17E
Method: as §1

Mycoplasma hyorhinis 29E = assay: broth-dilution microtiter MIC test; format: cell-based; conditions: Mycoplasma, 29E
Method: as §1

[20] = test system: Pasteurella multocida 60A; assay: broth-dilution microtiter MIC test; format: cell-based; conditions: Pasteurella multocida, 60A
Method: as §1

[21] = test system: Pasteurella multocida 68C; assay: broth-dilution microtiter MIC test; format: cell-based; conditions: Pasteurella multocida, 68C
Method: as §1

[22] = test system: Mycoplasma gallisepticum 36H; assay: broth-dilution microtiter MIC test; format: cell-based; conditions: Mycoplasmoides gallisepticum, 36H
Method: as §1

[23] = test system: Mycoplasma gallisepticum 15E; assay: broth-dilution microtiter MIC test; format: cell-based; conditions: Mycoplasmoides gallisepticum, 15E
Method: as §1

[24] = test system: Pasteurella multocida 22A; assay: broth-dilution microtiter MIC test; format: cell-based; conditions: Pasteurella multocida, 22A
Method: as §1

[25] = test system: Pasteurella hemolytica 22C; assay: broth-dilution microtiter MIC test; format: cell-based; conditions: Pasteurella, 22C
Method: as §1

Mycoplasma synoviae 40A = assay: broth-dilution microtiter MIC test; format: cell-based; conditions: Mycoplasmopsis synoviae, 40A
Method: as §1

[26] = test system: Pasteurella hemolytica 23C; assay: broth-dilution microtiter MIC test; format: cell-based; conditions: Pasteurella, 23C
Method: as §1

[27] = broth-dilution microtiter, read-out: MIC

SMILES | MIC [1] | MIC [4] | MIC [5] | MIC [6] | MIC [7] | MIC [8] | MIC [9] | MIC [10] | Number of Deaths/Number Treated (Pasteurella multocida) | MIC [12] | MIC [13] | MIC (Streptococcus sp. 19F) | MIC [14] | MIC [15] | MIC [16] | MIC [19] | MIC (Mycoplasma hyorhinis 29E) | MIC [20] | MIC [21] | MIC [22] | further results
CCC1OC(=O)CC(O)C(C)C(OC2OC(C)C(O)C(N(C)C)C2OC(C)=O)C(CC=O)CC(C)C(=O)C=CC(C)=CC1COC1OC(C)C(OC(C)=O)C(O)C1OC (centres unmarked) [Compound 21, 2',4"-Di-O-acetyl-lactenocin] | 4 µg/mL (≈ 4.75 µM) | 2 µg/mL (≈ 2.38 µM) | 1 µg/mL (≈ 1.19 µM) | 4 µg/mL (≈ 4.75 µM) | 8 µg/mL (≈ 9.5 µM) | 4 µg/mL (≈ 4.75 µM) | 2 µg/mL (≈ 2.38 µM) | 4 µg/mL (≈ 4.75 µM) | 3/10 | 4 µg/mL (≈ 4.75 µM) | 1 µg/mL (≈ 1.19 µM) | 1.56 µg/mL (≈ 1.85 µM) | 3.12 µg/mL (≈ 3.71 µM) | 3.12 µg/mL (≈ 3.71 µM) | 12.5 µg/mL (≈ 14.8 µM) | 12.5 µg/mL (≈ 14.8 µM) | 6.25 µg/mL (≈ 7.42 µM) | 12.5 µg/mL (≈ 14.8 µM) | 12.5 µg/mL (≈ 14.8 µM) | 50 µg/mL (≈ 59.4 µM) | MIC (Escherichia coli EC14; agar-dilution, read-out: MIC): > 128 µg/mL; MIC ([2]; agar-dilution, read-out: MIC): > 128 µg/mL; MIC ([3]; agar-dilution, read-out: MIC): > 128 µg/mL; ED50 [11]: 5.5 mg/kg; MIC [17]: 50 µg/mL (≈ 59.4 µM); MIC [18, 27]: > 50 µg/mL; MIC [23]: 50 µg/mL (≈ 59.4 µM); MIC [24]: 12.5 µg/mL (≈ 14.8 µM); MIC [25]: 50 µg/mL (≈ 59.4 µM); MIC (Mycoplasma synoviae 40A): 3.12 µg/mL (≈ 3.71 µM); MIC [26]: 50 µg/mL (≈ 59.4 µM)
CCC1OC(=O)CC(O)C(C)C(OC2OC(C)C(O)C(N(C)C)C2OC(C)=O)C(CC=O)CC(C)C(=O)C=CC(C)=CC1COC1OC(C)C(OC(C)=O)C(OC(C)=O)C1OC (centres unmarked) [Compound 23, 2',3",4"-Tri-O-acetyl-lactenocin] | 2 µg/mL (≈ 2.26 µM) | 2 µg/mL (≈ 2.26 µM) | 2 µg/mL (≈ 2.26 µM) | 8 µg/mL (≈ 9.05 µM) | 4 µg/mL (≈ 4.52 µM) | 4 µg/mL (≈ 4.52 µM) | 2 µg/mL (≈ 2.26 µM) | 2 µg/mL (≈ 2.26 µM) | 10/10 | 2 µg/mL (≈ 2.26 µM) | 2 µg/mL (≈ 2.26 µM) | 1.56 µg/mL (≈ 1.76 µM) | 1.56 µg/mL (≈ 1.76 µM) | 6.25 µg/mL (≈ 7.07 µM) | 50 µg/mL (≈ 56.6 µM) | 25 µg/mL (≈ 28.3 µM) | 12.5 µg/mL (≈ 14.1 µM) | 50 µg/mL (≈ 56.6 µM) | 25 µg/mL (≈ 28.3 µM) | 50 µg/mL (≈ 56.6 µM) | MIC (Escherichia coli EC14; agar-dilution, read-out: MIC): > 128 µg/mL; MIC ([2]; agar-dilution, read-out: MIC): > 128 µg/mL; MIC ([3]; agar-dilution, read-out: MIC): > 128 µg/mL; ED50 [11]: 6.8 mg/kg; MIC [17, 27]: > 50 µg/mL; MIC [18, 27]: > 50 µg/mL; MIC [23]: 50 µg/mL (≈ 56.6 µM); MIC [24]: 50 µg/mL (≈ 56.6 µM); MIC [25, 27]: > 50 µg/mL; MIC (Mycoplasma synoviae 40A): 6.25 µg/mL (≈ 7.07 µM); MIC [26, 27]: > 50 µg/mL
CCC1OC(=O)CC(O)C(C)C(OC2OC(C)C(O)C(N(C)C)C2OC(C)=O)C(CC=O)CC(C)C(=O)C=CC(C)=CC1COC1OC(C)C(OC(=O)Cc2ccccc2)C(O)C1OC (centres unmarked) [Compound 29, 2'-O-Acetyl-4"-O-phenylacetyl-lactenocin] | 1 µg/mL (≈ 1.09 µM) | 1 µg/mL (≈ 1.09 µM) | 0.5 µg/mL (≈ 0.545 µM) | 1 µg/mL (≈ 1.09 µM) | 1 µg/mL (≈ 1.09 µM) | 1 µg/mL (≈ 1.09 µM) | 1 µg/mL (≈ 1.09 µM) | 1 µg/mL (≈ 1.09 µM) | 9/10 | 1 µg/mL (≈ 1.09 µM) | 0.25 µg/mL (≈ 0.272 µM) | 0.39 µg/mL (≈ 0.425 µM) | 0.195 µg/mL (≈ 0.212 µM) | 1.56 µg/mL (≈ 1.7 µM) | 25 µg/mL (≈ 27.2 µM) | 12.5 µg/mL (≈ 13.6 µM) | 1.56 µg/mL (≈ 1.7 µM) | 25 µg/mL (≈ 27.2 µM) | 6.25 µg/mL (≈ 6.81 µM) | 6.25 µg/mL (≈ 6.81 µM) | MIC (Escherichia coli EC14): > 128 µg/mL; MIC [2]: > 128 µg/mL; MIC [3]: > 128 µg/mL; MIC [17]: 12.5 µg/mL (≈ 13.6 µM); MIC [18]: > 50 µg/mL; MIC [23]: 12.5 µg/mL (≈ 13.6 µM); MIC [24]: 25 µg/mL (≈ 27.2 µM); MIC [25]: 12.5 µg/mL (≈ 13.6 µM); MIC (Mycoplasma synoviae 40A): 0.195 µg/mL (≈ 0.212 µM); MIC [26]: 12.5 µg/mL (≈ 13.6 µM)
